Experimental findings from patent US11286263B2, “Macrocyclic fluorine substituted indole derivatives” (The Broad Institute, Inc., priority 2017, dated 2022) are described below.

Data set [1] concerns SUDHL5. The data set can be described thus: Induction of cytotoxicity, SUDHL5 (Assay 6). As to conditions: read-out: IC50 Cytotox SUDHL5 [M] (median), SUDHL5 cells, 5 h, CellTiter-Glo.
Data set [2] deals with AMO-1. The data set can be described thus: Antiproliferation assay AMO-1 (Assay 7). Type of data set: cell-based. Conditions: AMO-1 cells, CellTiter-Glo, single determinations, read-out: IC50 Antiproli AMO-1. Here is the method:
(§1) Assessment of the Anti-Proliferative Effect of Compounds in Different Cell Lines
(§2) The impact of compounds on the proliferation of different cell lines was assessed using the CellTiter-Glo® Luminescent Cell Viability reagent from Promega (G7573).
(§3) In parallel, cells were plated in a reference (day 0) plate for time zero determination.
(§4) Rim wells were excluded. The cells were incubated for 72 h hours in a humidified incubator at 37° C. The day 0 plate was measured by adding 30 μL/well of CTG solution (CellTiter-Glo® Luminescent Cell Viability reagent, Promega G7573) to time zero wells in the reference plate followed by a 10 minutes incubation and luminescence reading at 0.1 ms. using the PHERAstar FS microplate reader (BMG Labtech).
(§5) After 72 h incubation, the treated plates were measured in the same way as the day 0 plate mentioned above.

For data set [3], the system named is A2780. The data set can be described thus: Antiproliferation assay A2780 (Assay 7). As to conditions: A2780 cells, CellTiter-Glo, single determinations, read-out: IC50 Antiproli A2780. Type of data set: cell-based. Here is the method: as §1, §2, §3, §4, §5
Data set [4] has as its system SUDHL10. The data set can be described thus: Induction of cytotoxicity, SUDHL10 (Assay 6). Conditions: read-out: IC50 Cytotox SUDHL10 [M] (median), SUDHL10 cells, 5 h, CellTiter-Glo.
The test system of data set [5] is SUDHL5. The data set can be described thus: Induction of caspase-3/7 activity, SUDHL5 (Assay 4). Format: cell-based. Here is the method:
(§6) Induction of Caspase-3/7 Activity upon Treatment of Cells with Selected Compounds
(§7) The BH3-domain of MCL-1 sequesters pro-apoptotic proteins, thereby inhibiting apoptosis. In contrast, MCL-1 inhibitors are expected to antagonize this effect leading to an increase in apoptosis, which can be determined by measuring the activity of caspase-3/7.
(§8) The activity of caspase-3/7 was determined in DLBCL (Diffuse large B-cell lymphoma) cell lines (SUDHL5 and SUDHL10) upon treatment with different compounds, using the Caspase-Glo® 3/7 reagent from Promega (G8092).
(§9) Rim wells were excluded. The cells were incubated for 3 h hours in a humidified incubator at 37° C.
(§10) For the evaluation of the results, the background measured with “medium-only” was subtracted from all other values. […] The Bella DRC Master Sheet was used to calculate EC50s, with fixed C0=1 and Cl=plateau/max induction for the reference compound.

Data set [6] has as its system SUDHL5. The data set can be described thus: Antiproliferation assay SUDHL5 (Assay 7). Type of data set: cell-based. Here is the method:
as §1, §2, §3, §4, §5

For data set [7], the target named is MCL-1 (Homo sapiens (Human), UniProt Q07820, K194A/K197A/R201A). The data set can be described thus: Protein-protein interaction assay MCL-1/Noxa BH3 peptide (MCL-1 assay), TR-FRET. Type of data set: binding. As to conditions: MCL-1/Noxa BH3 peptide TR-FRET; median. How it is done:
Protein-Protein Interaction Assay: MCL-1/Noxa BH3 Peptide (MCL-1 Assay)
The dose-dependent inhibition by the compounds described in this invention of the interaction between MCL-1 and the BH3 domain of Noxa (both human) was determined using a steady state binding competition assay with time-resolved fluorescence energy transfer (TR-FRET) readout. For that purpose MCL-1 (amino acids 173-321, N-terminal fused to Maltose Binding Protein (MBP) SEQ ID 1)) and a synthetic Noxa BH3-derived peptide of sequence Biotin-PEG2-PEG2-PAELEVE-Nva-ATQLRRFGDKLNFRQKLL-amide (SEQ ID 2) served as protein receptor and tracer ligand respectively. The MBP-MCL-1 was purchased from Beryllium (Bedford, Mass., USA). The expression and purification of this protein construct has been described elsewhere (DOI:10.1371/journal.pone.0125010). The Noxa BH3-derived peptide can be obtained from e.g. Biosyntan (Berlin, Germany).
In the assay 11 different concentrations of each compound (0.1 nM, 0.33 nM, 1.1 nM, 3.8 nM, 13 nM, 44 nM, 0.15 μM, 0.51 μM, 1.7 μM, 5.9 μM and 20 μM) were typically measured as duplicates in the same microtiter plate. For that, 100-fold concentrated DMSO solutions were prepared by serial dilutions (1:3.4) of a 2 mM stock solution in a clear, 384-well microtiter plate (Greiner Bio-One, Frickenhausen, Germany). From there, 50 nl were transferred in a dark test plate (Greiner Bio-One, Frickenhausen, Germany). The assay was initiated by addition of 2 μl of a 2,5-fold concentrated MBP-MCL-1 solution (usually for a 1 nM end concentration in 5 μl reaction volume) in aqueous assay buffer [50 mM Tris/HCl pH 7, 100 mM sodium chloride (NaCl), 50 mM potassium fluoride (KF), 0.005% Tween-20, 2 mM DTT, 0.1% bovine gamma globulin (BGG)] to the compounds in the assay plate. This was followed by a 10-minute incubation step at 22° C. for pre-equilibration of the putative complex between MBP-MCL-1 and the compounds. After that, 3 μl of a 1.67-fold concentrated solution (in assay buffer) consisting of Noxa BH3-derived peptide (1 nM end concentration) and TR-FRET detection reagents [1.67 nM anti-MBP-Eu cryptate and 1.67 nM streptavidin-XL665 (both from Cisbio Bioassays, Codolet, France)], were added.
The mixture was incubated in the dark for one hour at 22° C. and then overnight at 4° C. The formation of MCL-1/Noxa complexes was determined by measuring the resonance energy transfer of the anti-MBP-Eu-cryptate antibody to the streptavidin-XL665 present in the reaction. For that purpose, the fluorescence emission at 620 nm and 665 nm after excitation at 330-350 nm was measured in a TR-FRET measuring instrument, for instance a Rubystar or a Pherastar (both from BMG Lab Technologies, Offenburg, Germany) or a Viewlux (Perkin-Elmer). The ratio of the emission at 665 nm and at 622 nm was used as indicator of the amount of MCL-1/NOXA complexes present.
The resulting data (ratio) were normalized, taking 0% inhibition as the mean value of control measurements (usually 32 data points) where all reagents were included. In this case 50 nl DMSO were used instead of compounds. A 100% inhibition corresponded to the mean value of control measurements (usually 32 data points) where all reagents except MCL-1 were included. IC50 values were determined by regression analysis based on a 4 parameter equation (minimum, maximum, IC50, Hill; Y=Max+(Min−Max)/(1+(X/IC50)^Hill) using the Screener Software (Genedata).

Data set [8] relates to SUDHL10. The data set can be described thus: Induction of caspase-3/7 activity, SUDHL10 (Assay 4). Type of data set: cell-based. How it is done:
as §6, §7, §8, §9, §10

In data set [9] the test system is MV-4-11. The data set can be described thus: Antiproliferation assay MV-4-11 (Assay 7). As to conditions: MV-4-11 cells, CellTiter-Glo, single determinations, read-out: IC50 Antiproli MV-4-11. Format: cell-based. How it is done:
as §1, §2, §3, §4, §5

Where [10] appears, read: Homo sapiens, SU-DHL-5, 3 h, SUDHL5 cells, Caspase-Glo 3/7, median.
Setting [11] is: Homo sapiens, SU-DHL-5, 72 h, SUDHL5 cells, CellTiter-Glo, median, read-out: IC50 Antiproli SUDHL5 [M] (median).
The mark [12] stands for this setting: Homo sapiens, SU-DHL10, 3 h, SUDHL10 cells, Caspase-Glo 3/7, median.
Setting [13] is: 72 h, trifluoroacetic acid salt.
[14] abbreviates: SUDHL5 cells, 3 h, Caspase-Glo 3/7; median.
The mark [15] stands for this setting: SUDHL5 cells, 72 h, CellTiter-Glo; median; read-out: IC50 Antiproli SUDHL5 [M] (median).
The mark [16] stands for this setting: SUDHL10 cells, 3 h, Caspase-Glo 3/7; median.

Molecules are shown by their SMILES. Several values for one entry are separate records, joined by “and”; a condition that tells them apart may be missing. Equal entries are not always repeated. Structures can show the parent of a compound that is named as a salt. Where two headings read alike, the source gives them in different places.

MCL-1, sequence (Q07820 whole entry K194A/K197A/R201A, looked up): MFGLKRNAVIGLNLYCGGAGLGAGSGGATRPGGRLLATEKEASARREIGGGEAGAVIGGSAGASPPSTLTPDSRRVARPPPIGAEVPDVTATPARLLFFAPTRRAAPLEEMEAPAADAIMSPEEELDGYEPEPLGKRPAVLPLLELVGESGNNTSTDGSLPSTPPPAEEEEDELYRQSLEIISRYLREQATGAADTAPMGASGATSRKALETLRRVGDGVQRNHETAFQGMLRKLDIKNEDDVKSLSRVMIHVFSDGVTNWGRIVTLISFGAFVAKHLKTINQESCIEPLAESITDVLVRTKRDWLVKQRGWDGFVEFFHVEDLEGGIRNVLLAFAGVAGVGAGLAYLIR

For the compound `CCc1c2c(nn1C)COCCCCn1c(C(=O)O)c(CCCOc3ccc(F)c4ccccc34)c3ccc(F)c-2c31` (racemic) [Example 26, (rac)-12-ethyl-13-fluoro-1-(3-((4-fluoronaphthalen-1-yl)oxy)propyl)-11-methyl-4,5,6,7,9,11-hexahydropyrazolo[4′,3′:9,10][1]oxa[6]azacycloundecino[8,7,6-hi]indole-2-carboxylic acid], the IC50 in data set [1] (Homo sapiens, SU-DHL-5, 5 h) came out at 1.8e-06 M; in data set [2] (Homo sapiens, AMO1, 72 h), 4.31 µM; in [3] (Homo sapiens, A2780, 72 h) it was 10.2 µM; in [4] (Homo sapiens, SU-DHL10, 5 h) it was 3.7e-06 M; in data set [6] (setting [11]) it was 2.2e-06 M; in [7], 0.0014 µM. The concentration giving a half-maximal response (EC50) in data set [5] (setting [10]) turned out to be 1.5 µM; in data set [8] (setting [12]) it was 3.3 µM.
Turning to `Cc1c2c(nn1C)CNCCCCn1c(C(=O)O)c(CCCOc3cccc4ccccc34)c3ccc(F)c-2c31` (racemic) [Example 47, (rac)-4-fluoro-2,3-dimethyl-7-[3-(1-naphthyloxy)propyl]-10,11,12,13,14,15-hexahydro-2H-pyrazolo[3′,4′:8,9][1,6]diazacycloundecino[10,11,1-hi]indole-8-carboxylic acid trifluoroacetic acid salt], the IC50 in data set [1] (Homo sapiens, SU-DHL-5, 5 h) was 2.2e-06 M; in data set [3] (setting [13]), 18.9 µM; in [3] (Homo sapiens, A2780, 72 h), 20.9 µM; in data set [9] (Homo sapiens, MV4-11, 72 h), 1.02 µM; in data set [9] (setting [13]), 1.32 µM; in [4] (Homo sapiens, SU-DHL10, 5 h), 5.6e-06 M. Moreover, the 50% inhibitory concentration (IC50) in [6] (Homo sapiens, SU-DHL-5; SUDHL5 cells, 72 h, CellTiter-Glo; median; read-out: IC50 Antiproli SUDHL5 [M] (median)) came out at 2.1e-06 M; in data set [7] it was 0.00082 µM. In addition, the concentration giving a half-maximal response (EC50) was 1.4 µM in data set [5] (Homo sapiens, SU-DHL-5; SUDHL5 cells, 3 h, Caspase-Glo 3/7; median) and 5 µM in [8] (Homo sapiens, SU-DHL10; SUDHL10 cells, 3 h, Caspase-Glo 3/7; median).
Turning to `CCc1c2c(nn1C)COCCCCn1c(C(=O)O)c(CCCOc3cccc4ccccc34)c3ccc(F)c-2c31` (single isomer, unassigned; enantiomer 2) [Example 8, 3-ethyl-4-fluoro-2-methyl-7-{3-[(naphthalen-1-yl)oxy]propyl}-2,10,11,12,13,15-hexahydro-pyrazolo[4′,3′:9,10][1,6]oxazacycloundecino[8,7,6-hi]indole-8-carboxylic acid-N-ethylethanamine salt (enantiomer 2)], the IC50 in data set [1] is 2.7e-05 M; in data set [3] (72 h, listed as 08), 20 µM; in data set [9] (72 h, listed as 08), 21.3 µM; in data set [4], above 3.3e-05 M; in [6] (setting [15]) it was 1.5e-05 M; in data set [7], 0.026 µM. Also, the EC50 in data set [5] (setting [14]) was 30 µM; in [8] (setting [16]), above 33 µM.
`Cc1c2c(nn1C)COCCCCn1c(C(=O)O)c(CCCOc3cccc4cc(F)ccc34)c3ccc(F)c-2c31` (single isomer, unassigned; enantiomer 2) [Example 14, 4-fluoro-7-{3-[(6-fluoronaphthalen-1-yl)oxy]propyl}-2,3-dimethyl-2,10,11,12,13,15-hexahydro-pyrazolo[4′,3′:9,10][1,6]oxazacycloundecino[8,7,6-hi]indole-8-carboxylic acid-N-ethylethanamine salt (enantiomer 2)]: the IC50 is 6e-06 M in data set [1]; 7.54 µM and 11.6 µM in [2] (72 h); 19.8 µM in data set [3] (72 h); 1.2e-05 M in data set [4]; 4e-06 M in [6] (setting [15]); 0.017 µM in data set [7]. Besides, the concentration giving a half-maximal response (EC50) stood at 5.4 µM in data set [5] (setting [14]) and 14 µM in data set [8] (setting [16]).
Take `Cc1c2c(nn1C)C[N+](C)(C)CCCCn1c(C(=O)O)c(CCCOc3cccc4ccccc34)c3ccc(F)c-2c31` [Example 50, 8-carboxy-4-fluoro-2,3,14,14-tetramethyl-7-[3-(1-naphthyloxy)propyl]-10,11,12,13,14,15-hexa-hydro-2H-pyrazolo[3′,4′:8,9][1,6]diazacycloundecino[10,11,1-hi]indol-14-ium trifluroacetate]: the IC50 in data set [1] (Homo sapiens, SU-DHL-5, 5 h) is 1.6e-05 M; in [3] (Homo sapiens, A2780, 72 h), above 33 µM; in data set [9] (Homo sapiens, MV4-11, 72 h) it was 13.4 µM; in [4] (Homo sapiens, SU-DHL10, 5 h), above 3.3e-05 M; in data set [6] (setting [11]), 6.1e-06 M; in data set [7], 0.00084 µM. The half-maximal effective concentration (EC50) was 20 µM in data set [5] (setting [10]) and above 33 µM in [8] (setting [12]).
